{"source": "paper PMC8064871", "about": "(International Journal of Biological Macromolecules, 2021)", "molecular_target": "T1, human chymotrypsin-C (CTRC) (Homo sapiens, UniProt Q99895)", "T1 sequence (Q99895 30-268)": "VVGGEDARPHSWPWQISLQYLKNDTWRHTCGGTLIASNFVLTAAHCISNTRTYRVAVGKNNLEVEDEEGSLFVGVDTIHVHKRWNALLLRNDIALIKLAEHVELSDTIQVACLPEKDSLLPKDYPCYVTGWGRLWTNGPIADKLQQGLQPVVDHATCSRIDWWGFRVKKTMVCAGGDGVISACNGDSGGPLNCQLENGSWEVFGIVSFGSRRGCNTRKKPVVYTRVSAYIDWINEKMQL", "assay": "In vitro assessment of human chymotrypsin C", "format": "biochemical", "settings": "0, 1, 10, 100 µM; 30 min at 37 °C; OD405"}
{"smiles": "CC1=CC(=O)c2ccccc2C1=O", "note": "[Entry 1, 2-Methyl-1,4-naphthoquinone (vitamin K3), reference compound]", "values": [{"measurement": "inhibition of human CTRC activity (in words)", "result": "selectively inhibit SARS-CoV-2 and SARS-CoV 3CL^pro, rather than human CTRC"}]}
